Values quoted from earlier work, collected in patent US11648211B2, “Nanoencapsulated combination drug formulations” (priority 2019, dated 2023).
Like-named read-outs stand apart in the source and are kept apart here.

Test system: spontaneous breast cancer

Cn1ncnc1[C@H]1c2n[nH]c(=O)c3cc(F)cc(c23)N[C@@H]1c1ccc(F)cc1 [TLZ, Talazoparib]
animals with alopecia (i.v.): 25% | animals with alopecia (oral): 25%
